According to PubChem BioAssay (NCI):
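Exposure lasted 48 hours, with cells grown in 96-well plates and compounds tested at five concentrations. GI50 marks 50% less growth. TGI: total growth inhibition.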

Key:
Assay in all cases: growth of human tumour cells (NCI), 48 h
SK-MEL-2 melanoma = test system: SK-MEL-2 melanoma
IGROV1 ovarian = test system: IGROV1 ovarian
NCI-H226 lung = test system: NCI-H226 lung
NCI-H23 lung = test system: NCI-H23 lung
SK-MEL-5 melanoma = test system: SK-MEL-5 melanoma
SF-295 CNS = test system: SF-295 CNS
A549 NSCLC = test system: A549 NSCLC
CAKI-1 renal = test system: CAKI-1 renal
KM12 colon = test system: KM12 colon
SF-539 CNS = test system: SF-539 CNS
NCI/ADR-RES ovarian = test system: NCI/ADR-RES ovarian
DU-145 prostate = test system: DU-145 prostate
HOP-92 NSCLC = test system: HOP-92 NSCLC
T-47D breast = test system: T-47D breast
MALME-3M melanoma = test system: MALME-3M melanoma
HL-60(TB) leukemia = test system: HL-60(TB) leukemia
RPMI-8226 leukemia = test system: RPMI-8226 leukemia
MDA-MB-435 = test system: MDA-MB-435
A498 renal = test system: A498 renal
CCRF-CEM leukemia = test system: CCRF-CEM leukemia
NCI-H460 lung = test system: NCI-H460 lung
OVCAR-4 ovarian = test system: OVCAR-4 ovarian
SF-268 CNS = test system: SF-268 CNS
HT29 colon = test system: HT29 colon
BT-549 breast = test system: BT-549 breast
TK-10 renal = test system: TK-10 renal
HCT-116 colon = test system: HCT-116 colon
MDA-MB-231 breast = test system: MDA-MB-231 breast
COLO 205 colon = test system: COLO 205 colon
SK-OV-3 ovarian = test system: SK-OV-3 ovarian
UACC-62 melanoma = test system: UACC-62 melanoma
OVCAR-8 ovarian = test system: OVCAR-8 ovarian
OVCAR-5 ovarian = test system: OVCAR-5 ovarian
UO-31 renal = test system: UO-31 renal
NCI-H522 lung = test system: NCI-H522 lung
HCT-15 colon = test system: HCT-15 colon
SN12C renal = test system: SN12C renal
K-562 leukemia = test system: K-562 leukemia
PC-3 prostate = test system: PC-3 prostate
SNB-75 CNS = test system: SNB-75 CNS
SW-620 colon = test system: SW-620 colon
LOX IMVI melanoma = test system: LOX IMVI melanoma
HOP-62 NSCLC = test system: HOP-62 NSCLC
HS 578T breast = test system: HS 578T breast
ACHN renal = test system: ACHN renal
SNB-19 CNS = test system: SNB-19 CNS
786-0 renal = test system: 786-0 renal
MOLT-4 leukemia = test system: MOLT-4 leukemia
U251 CNS = test system: U251 CNS
HCC-2998 colon = test system: HCC-2998 colon
SK-MEL-28 melanoma = test system: SK-MEL-28 melanoma
SR leukemia = test system: SR leukemia
OVCAR-3 ovarian = test system: OVCAR-3 ovarian
MCF7 breast = test system: MCF7 breast
UACC-257 melanoma = test system: UACC-257 melanoma
M14 melanoma = test system: M14 melanoma

## CN(C)CCCNCc1ccc(-c2ccc(F)c(Cl)c2)o1
SK-MEL-2 melanoma
  GI50: 15.9 µM
  TGI: 31.2 µM
IGROV1 ovarian
  GI50: 13.5 µM
  TGI: 32.2 µM
NCI-H226 lung
  GI50: 16.8 µM
  TGI: 35 µM
NCI-H23 lung
  GI50: 14.7 µM
  TGI: 31.5 µM
SK-MEL-5 melanoma
  GI50: 3.69 µM
  TGI: 13.9 µM
SF-295 CNS
  GI50: 14.3 µM
  TGI: 31.2 µM
A549 NSCLC
  GI50: 16.1 µM
  TGI: 31.8 µM
CAKI-1 renal
  GI50: 12.6 µM
  TGI: 27.3 µM
KM12 colon
  GI50: 14.5 µM
  TGI: 29.2 µM
SF-539 CNS
  GI50: 12.9 µM
  TGI: 27.9 µM
NCI/ADR-RES ovarian
  GI50: 15.7 µM
  TGI: 33.4 µM
DU-145 prostate
  GI50: 16.6 µM
  TGI: 30.6 µM
HOP-92 NSCLC
  GI50: 3.06 µM
  TGI: 20 µM
T-47D breast
  GI50: 11.8 µM
  TGI: 28.3 µM
MALME-3M melanoma
  GI50: 16 µM
  TGI: 33.5 µM
HL-60(TB) leukemia
  GI50: 14.1 µM
  TGI: 30.7 µM
RPMI-8226 leukemia
  GI50: 10.7 µM
  TGI: 29.9 µM
MDA-MB-435
  GI50: 5.58 µM
  TGI: 20.5 µM
A498 renal
  GI50: 3.22 µM
  TGI: 18.7 µM
CCRF-CEM leukemia
  GI50: 9.71 µM
  TGI: 26.3 µM
NCI-H460 lung
  GI50: 14.3 µM
  TGI: 29.8 µM
OVCAR-4 ovarian
  GI50: 13 µM
  TGI: 35.8 µM
SF-268 CNS
  GI50: 12.1 µM
  TGI: 24.8 µM
HT29 colon
  GI50: 6.18 µM
  TGI: 20.4 µM
BT-549 breast
  GI50: 11.8 µM
  TGI: 26 µM
TK-10 renal
  GI50: 16.3 µM
  TGI: 31.5 µM
HCT-116 colon
  GI50: 8.33 µM
  TGI: 25 µM
MDA-MB-231 breast
  GI50: 9.89 µM
  TGI: 22.3 µM
COLO 205 colon
  GI50: 4.52 µM
  TGI: 15.5 µM
SK-OV-3 ovarian
  GI50: 16.9 µM
  TGI: 31.1 µM
UACC-62 melanoma
  GI50: 1.88 µM
  TGI: 3.79 µM
OVCAR-8 ovarian
  GI50: 16.2 µM
  TGI: 36.5 µM
OVCAR-5 ovarian
  GI50: 15.5 µM
  TGI: 33.6 µM
UO-31 renal
  GI50: 12.3 µM
  TGI: 26.9 µM
NCI-H522 lung
  GI50: 13.6 µM
  TGI: 30 µM
HCT-15 colon
  GI50: 12.2 µM
  TGI: 32.4 µM
SN12C renal
  GI50: 12.1 µM
  TGI: 26.6 µM
K-562 leukemia
  GI50: 3.06 µM
  TGI: 10.2 µM
PC-3 prostate
  GI50: 12.2 µM
  TGI: 26.5 µM
SNB-75 CNS
  GI50: 1.23 µM
  TGI: 18.1 µM
SW-620 colon
  GI50: 14 µM
  TGI: 30.3 µM
LOX IMVI melanoma
  GI50: 5.23 µM
  TGI: 18.2 µM
HOP-62 NSCLC
  GI50: 14.5 µM
  TGI: 28.2 µM
HS 578T breast
  GI50: 10.3 µM
  TGI: 26.8 µM
ACHN renal
  GI50: 15.9 µM
  TGI: 32.7 µM
SNB-19 CNS
  GI50: 15.3 µM
  TGI: 32.8 µM
786-0 renal
  GI50: 10.8 µM
  TGI: 23.7 µM
MOLT-4 leukemia
  GI50: 11.5 µM
  TGI: 28 µM
U251 CNS
  GI50: 14.4 µM
  TGI: 30.7 µM
HCC-2998 colon
  GI50: 13 µM
  TGI: 25.9 µM
SK-MEL-28 melanoma
  GI50: 10.2 µM
  TGI: 22.1 µM
SR leukemia
  GI50: 2.96 µM
  TGI: 8.37 µM
OVCAR-3 ovarian
  GI50: 15.4 µM
  TGI: 29.8 µM
MCF7 breast
  GI50: 10.1 µM
  TGI: 23.4 µM
UACC-257 melanoma
  GI50: 3.81 µM
  TGI: 13.8 µM
M14 melanoma
  GI50: 7.2 µM
  TGI: 22 µM
